Data: patent US10253052B2, “HBED-bisphosphonates, radiometal conjugates and their use as theranostic agents” (Five Eleven Pharma Inc., priority 2015, dated 2019)

Experiments:
[1] = In vivo biodistribution in mice; set-up: species or system normal CD-1 male mice; details: iv
Description: Biodistribution experiments were performed by intravenously administering ^68Ga labeled 1a-h, 2, 3, BPAMD, and [^18F]NaF into normal, healthy male CD-1 mice (25-30 g). The injection activity was 20-30 μCi/animal. […] Organs of interest were harvested, weighed, and counts of radioactivity were measured by a gamma counter. The biodistribution of each sample was calculated as a percentage of the injected dose per gram of wet tissue weight (% ID/g). Tibia and femur bones were harvested and counted as bone samples.

[2] = In vitro binding to hydroxyapatite; details: 20 mg hydroxyapatite in saline, 10 min at room temperature
Description: Hydroxyapatite (20 mg, Sigma-Aldrich, reagent grade powder) was incubated in isotonic saline (1 mL) for 24 h. Subsequently, either ^68Ga labeled 1a-h, 2, 3, BPAMD, or [^18F]NaF (1 μCi) was added to the hydroxyapatite suspension. After vortexing for 10 seconds, the suspension was incubated for 10 min at room temperature. The samples were then centrifuged at 10,000 rpm for 3 min and the supernatant was removed. The hydroxyapatite fraction was washed twice with saline (1 mL). Radioactivity in the combined supernatants and the hydroxyapatite fraction was measured using a gamma counter. The proportion of the ^68Ga complex binding to hydroxyapatite was determined as percent of ^68Ga absorbed to hydroxyapatite.

O=C([O-])CN(CCN(CC(=O)[O-])Cc1cc(CCC(=O)N[C@@H](CCC(=O)O)C(=O)O)ccc1[O-])Cc1cc(CCC(=O)NC(P(=O)(O)O)P(=O)(O)O)ccc1[O-].[68Ga+3] [[^68Ga]1f]
bone to blood ratio ([1]; 2 min): 1 | bone to muscle ratio ([1]; 2 min): 4 | Biodistribution: Blood ([1]; 2 min post injection): 8.98 ± 0.68 % dose/g | Biodistribution: Bone ([1]; 2 min post injection): 8.62 ± 0.23 % dose/g | Biodistribution: Brain ([1]; 2 min post injection): 0.22 ± 0.00 % dose/g | Biodistribution: Heart ([1]; 2 min post injection): 3.53 ± 0.57 % dose/g | Biodistribution: Kidney ([1]; 2 min post injection): 24.7 ± 3.13 % dose/g | Biodistribution: Liver ([1]; 2 min post injection): 2.43 ± 0.27 % dose/g | Biodistribution: Lung ([1]; 2 min post injection): 5.01 ± 0.81 % dose/g | Biodistribution: Muscle ([1]; 2 min post injection): 2.10 ± 0.12 % dose/g | Biodistribution: Pancreas ([1]; 2 min post injection): 1.96 ± 0.15 % dose/g | Biodistribution: Skin ([1]; 2 min post injection): 2.62 ± 0.11 % dose/g | Biodistribution: Spleen ([1]; 2 min post injection): 2.20 ± 0.26 % dose/g | bone to blood ratio ([1]; 30 min): 33 | bone to muscle ratio ([1]; 30 min): 74 | Biodistribution: Blood ([1]; 30 min (0.5 hr) post injection): 0.52 ± 0.05 % dose/g | Biodistribution: Bone ([1]; 30 min (0.5 hr) post injection): 16.8 ± 1.66 % dose/g | Biodistribution: Brain ([1]; 30 min (0.5 hr) post injection): 0.02 ± 0.00 % dose/g | Biodistribution: Heart ([1]; 30 min (0.5 hr) post injection): 0.23 ± 0.01 % dose/g | Biodistribution: Kidney ([1]; 30 min (0.5 hr) post injection): 2.05 ± 0.52 % dose/g | Biodistribution: Liver ([1]; 30 min (0.5 hr) post injection): 0.28 ± 0.02 % dose/g | Biodistribution: Lung ([1]; 30 min (0.5 hr) post injection): 0.42 ± 0.03 % dose/g | Biodistribution: Muscle ([1]; 30 min (0.5 hr) post injection): 0.23 ± 0.01 % dose/g | Biodistribution: Pancreas ([1]; 30 min (0.5 hr) post injection): 0.15 ± 0.01 % dose/g | Biodistribution: Skin ([1]; 30 min (0.5 hr) post injection): 0.49 ± 0.04 % dose/g | Biodistribution: Spleen ([1]; 30 min (0.5 hr) post injection): 0.22 ± 0.03 % dose/g | bone to blood ratio ([1]; 60 min): 78 | bone to muscle ratio ([1]; 60 min): 222 | Biodistribution: Blood ([1]; 60 min (1 hr) post injection): 0.18 ± 0.04 % dose/g | Biodistribution: Bone ([1]; 60 min (1 hr) post injection): 14.4 ± 3.01 % dose/g | Biodistribution: Brain ([1]; 60 min (1 hr) post injection): 0.01 ± 0.00 % dose/g | Biodistribution: Heart ([1]; 60 min (1 hr) post injection): 0.11 ± 0.01 % dose/g | Biodistribution: Kidney ([1]; 60 min (1 hr) post injection): 1.59 ± 0.72 % dose/g | Biodistribution: Liver ([1]; 60 min (1 hr) post injection): 0.20 ± 0.02 % dose/g | Biodistribution: Lung ([1]; 60 min (1 hr) post injection): 0.21 ± 0.01 % dose/g | Biodistribution: Muscle ([1]; 60 min (1 hr) post injection): 0.06 ± 0.00 % dose/g | Biodistribution: Pancreas ([1]; 60 min (1 hr) post injection): 0.08 ± 0.02 % dose/g | Biodistribution: Skin ([1]; 60 min (1 hr) post injection): 0.15 ± 0.01 % dose/g | Biodistribution: Spleen ([1]; 60 min (1 hr) post injection): 0.12 ± 0.04 % dose/g | bone to blood ratio ([1]; 120 min): 180 | bone to muscle ratio ([1]; 120 min): 374 | Biodistribution: Blood ([1]; 120 min post injection): 0.09 ± 0.01 % dose/g | Biodistribution: Bone ([1]; 120 min post injection): 16.7 ± 1.12 % dose/g | Biodistribution: Brain ([1]; 120 min post injection): 0.01 ± 0.01 % dose/g | Biodistribution: Heart ([1]; 120 min post injection): 0.07 ± 0.01 % dose/g | Biodistribution: Kidney ([1]; 120 min post injection): 1.08 ± 0.20 % dose/g | Biodistribution: Liver ([1]; 120 min post injection): 0.19 ± 0.01 % dose/g | Biodistribution: Lung ([1]; 120 min post injection): 0.13 ± 0.01 % dose/g | Biodistribution: Muscle ([1]; 120 min post injection): 0.04 ± 0.01 % dose/g | Biodistribution: Pancreas ([1]; 120 min post injection): 0.04 ± 0.00 % dose/g | Biodistribution: Skin ([1]; 120 min post injection): 0.09 ± 0.01 % dose/g | Biodistribution: Spleen ([1]; 120 min post injection): 0.08 ± 0.01 % dose/g | Hydroxyapatite Binding (%) [2]: 96.4 ± 1.2%
